Measured values: patent EP0880540B1, “17-BETA-CYCLOPROPYL(AMINO/OXY) 4-AZA STEROIDS AS ACTIVE INHIBITORS OF TESTOSTERONE 5-ALPHA-REDUCTASE AND C17-20-LYASE” (Aventis Pharmaceuticals Inc., priority 1996, dated 1997)

Experiments:
[1] = target: T1, cynomolgus monkey prostatic 5α-reductase (Macaca fascicularis, UniProt Q28892); assay: In vitro 5α-reductase assay, prostate microsomes; type: biochemical; details: mean of duplicates
T1 construct: microsomal preparations of the 5α-reductase enzyme from laboratory animal prostate tissue; from tissue; host or cells: cynomolgus monkey prostate, microsomes
T1 sequence (Q28892 1-254): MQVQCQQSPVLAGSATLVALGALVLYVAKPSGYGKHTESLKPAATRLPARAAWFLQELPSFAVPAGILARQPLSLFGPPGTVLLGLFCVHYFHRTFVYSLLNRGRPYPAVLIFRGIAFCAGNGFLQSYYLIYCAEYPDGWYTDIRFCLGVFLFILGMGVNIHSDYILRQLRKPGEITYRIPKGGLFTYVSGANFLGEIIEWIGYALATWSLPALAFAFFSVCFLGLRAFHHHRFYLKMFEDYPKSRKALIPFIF
Method: In vitro 5α-reductase assays: The activity of the present compounds as inhibitors of steroid 5α-reductase was determined using microsomal preparations of the 5α-reductase enzyme from laboratory animal prostate tissue. Specifically, microsomes were isolated from cynomolgus monkey prostate tissue. Protein concentration of the microsomal preparations was determined prior to use of the samples. Individual assays of cynomolgus monkey prostatic 5α-reductase activity contained 0.1 M potassium phosphate-sodium citrate buffer, pH 5.6 1.0% (w/v) bovine serum albumin, […] sodium EDTA, 4 µg of microsomal protein, 1.0 mM NADPH, 5.0 mM glucose-6-phosphate, 1 IU/mL glucose-6-phosphate dehydrogenase, [1,2-^3H]-testosterone (0.15 µCi) plus unlabeled testosterone to yield 0.015 µM (Km = 0.015 µM to 0.091 µM in multiple determinations), and test compound which was dissolved in DMSO then diluted in 0.1 M potassium phosphate-sodium citrate buffer, pH 5.6, to yield a final assay concentration of 0.1% (v/v) DMSO. The same buffer and DMSO without test compound were used in control assays. Background radioactivity was determined from assays containing all components except enzyme. Assays were performed in duplicate. Microsomes, 0.1 M potassium phosphate-sodium citrate buffer, pH 5.6, and test compound were preincubated at 37°C. Aliquots of 180 µL were removed after 0 or 40 minutes of preincubation and added to […] of testosterone substrate suspended in 0.1 M potassium phosphate-sodium citrate buffer, pH 5.6, containing 10% (v/v) DMSO. Remaining enzyme activity was assayed for 10 minutes at 37°C in a Dubnoff shaker incubator.
The reactions were terminated by the addition of 5 mL CHCl3:methanol (2:1) and 0.9 mL water. Carrier steroids were added in the form of 2.5 µg each of testosterone, dihydrotestosterone, and 3,17-androstanediol. Steroid metabolites were then extracted according to the procedure of Moore and Wilson (Methods in Enzymol., O'Malley, B.W. and Hardman, J.G. eds., 36, 1975, pp. 466-474), the organic phase containing the steroids was evaporated using nitrogen gas, the residues were dissolved in 3% (v/v) isopropanol in hexane. The steroids were then separated by normal phase HPLC on a LiCrosorb® DIOL derivatized silica gel column (10 µm; 4 x 250 mm) with a 3% to 7.5% isopropanol in hexane gradient, followed by isocratic conditions of […] isopropanol in hexane. Radioactivity in the steroid peaks was measured using a Packard Radiomatic model HS Flo-One detector. When the compound were tested using the above procedures with cynomolgus monkey 5α-reductase, the following results were obtained: Table 2: […]

[2] = target: T2, cynomolgus monkey C17,20 lyase (Macaca fascicularis, UniProt Q2XVA1); assay: In vitro C17,20 lyase assay, testicular microsomes; type: biochemical; details: mean of duplicates
T2 construct: microsomal preparations of the enzyme from testicular tissue; from tissue; host or cells: cynomolgus monkey testes, microsomes
T2 sequence (Q2XVA1 1-508): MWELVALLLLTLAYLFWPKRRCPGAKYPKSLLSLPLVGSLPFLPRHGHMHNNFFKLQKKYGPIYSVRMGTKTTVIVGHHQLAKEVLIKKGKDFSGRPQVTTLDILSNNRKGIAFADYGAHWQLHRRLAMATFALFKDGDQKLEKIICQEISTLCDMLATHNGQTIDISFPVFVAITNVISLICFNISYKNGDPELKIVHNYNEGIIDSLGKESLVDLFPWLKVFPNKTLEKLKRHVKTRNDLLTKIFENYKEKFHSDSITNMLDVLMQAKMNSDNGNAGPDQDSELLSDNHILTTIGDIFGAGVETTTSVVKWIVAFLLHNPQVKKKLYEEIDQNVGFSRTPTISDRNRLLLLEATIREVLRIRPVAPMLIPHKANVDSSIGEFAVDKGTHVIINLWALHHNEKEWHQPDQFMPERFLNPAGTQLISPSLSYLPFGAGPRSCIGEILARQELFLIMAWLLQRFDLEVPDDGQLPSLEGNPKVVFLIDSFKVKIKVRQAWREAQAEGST
Method: In vitro C17,20 lyase assays: Compounds were tested for inhibition of cynomolgus monkey C17,20 lyase in vitro using microsomal preparations of the enzyme from testicular tissue. Testes were removed from anesthetized animals and flash frozen in liquid nitrogen. Microsomes were isolated as described in Schatzman et al., Anal. Biochem. 175, 219-226 (1988). The compound to be tested was dissolved in dimethyl sulfoxide and diluted in 0.05 M potassium phosphate buffer, pH 7.4, to give the desired concentrations of test compound, in an amount which contributed 0.1% v/v DMSO to the total assay volume. Assays contained 0.05 M potassium phosphate buffer, pH 7.4, an NADPH regenerating system (1 mM NADPH, 5 mM glucose-6-phosphate, 1 IU/mL glucose-6-phosphate dehydrogenase), test compound, substrate and microsomal protein in a total volume of 0.2 mL. Control assays contained all components, including dimethyl sulfoxide, but not test ccmpound. All assays were performed in duplicate. The test compound was incubated with 20 to 62 µg/mL microsomal protein, buffer, and the NADPH regenerating system described above at 34°C for 0 or 40 minutes. Aliquots of 180 µL were then removed and assayed for enzyme activity by addition to 7-[^3H]-17α-hydroxypregnenolone (11.2 mCi/mmole; 0.2 µCi per assay) plus unlabeled 17α-hydroxypregnenolone dissolved in DMSO, contributing 2.5% v/v to the final assay mix, and phosphate buffer to give a total substrate concentration of 0.05 µM (=Km) per assay and subsequent incubation at 34°C for 6 minutes. Each assay was terminated by addition of 5 mL of chloroform:methanol (2:1). Carrier steroids representing substrates and produces (17α-hydroxypregnenolone, dehydroepiandrosterone, and androst-5-ene-3β,17β-diol) and 0.8 mL of distilled, deionized water were also added at this time. The steroids were extracted by the method of Moore and Wilson (Methods in Enzymol., eds. O. Malley, B.W. and Hardman, J.G. 36, 1975, pp. 466-474). The organic phase containing the steroids was evaporated using nitrogen gas, the residues dissolved in 18% tetrahydrofuran (v/v) in hexane, and the steroids were separated by HPLC on a Si60 (5 µm) column (250 x 4 mm) using a gradient of 18-22% tetrahydrofuran (v/v) in hexane. Radioactivity in the steroid peaks was measured using a Radiomatic® Model ES or Model A515 Flo-One® detector.
The enzyme activity for each assay was calculated from the percent conversion of substrate to products, and the results were expressed as percent inhibition of control. The following results were obtained, wherein the values indicated are the mean of duplicate determinations: Table 1: […]

C[C@]12CC[C@H]3[C@@H](CC=C4NC(=O)CC[C@@]43C)[C@@H]1CC[C@@H]2OC1CC1 (stereo in doubt) [MDL 103,496, 17β-Cyclopropyloxy-4-aza-androst-5-en-3-one]
inhibition at 0.1 µM ([1]; preincubation 0 min): 24.6%
inhibition at 0.1 µM ([1]; preincubation 40 min): 29.5%
inhibition at 1 µM ([1]; preincubation 0 min): 86.2%
inhibition at 1 µM ([1]; preincubation 40 min): 86.7%
inhibition at 10 µM ([1]; preincubation 0 min): 99.6%
inhibition at 10 µM ([1]; preincubation 40 min): 99.4%
inhibition at 0.1 µM ([2]; preincubation 0 min): 5%
inhibition at 0.1 µM ([2]; preincubation 40 min): 26.6%
inhibition at 1 µM ([2]; preincubation 0 min): 29%
inhibition at 1 µM ([2]; preincubation 40 min): 62.2%
inhibition at 10 µM ([2]; preincubation 0 min): 39.2%
inhibition at 10 µM ([2]; preincubation 40 min): 87.7%
